# In patent US20220119354A1, “DIAMINO-SUBSTITUTED PYRIDINES AND PYRIMIDINES AS HERBICIDES” (FMC Corporation, priority 2019, published 2022):
# What was measured:
# Type in all cases: in vivo
# [1] = system: barnyardgrass (Echinochloa crus-galli); assay: Test A postemergence, barnyardgrass; conditions: 0 to 100 scale, 0 no effect, 100 complete control
# Summary of the method: (§1)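 Using a solvent/surfactant formulation, test chemicals were sprayed onto freshly seeded soil or onto 2–10 cm seedlings at the one- to two-leaf stage. Visual injury ratings on a 0–100 scale were made about 10 d later in the greenhouse.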
# [2] = system: ragweed (common ragweed, Ambrosia elatior); assay: Test A postemergence, ragweed; conditions: 0 to 100 scale, 0 no effect, 100 complete control
# Summary of the method: as §1
# [3] = system: ragweed (common ragweed, Ambrosia elatior); assay: Test A preemergence, ragweed; conditions: 0 to 100 scale, 0 is no effect, 100 is complete control
# Summary of the method: as §1
# [4] = system: ryegrass, Italian (Lolium multiflorum); assay: Test A postemergence, Italian ryegrass; conditions: 0 to 100 scale, 0 no effect, 100 complete control
# Summary of the method: as §1
# rice (Oryza sativa) = assay: Test B flooded paddy test, rice; conditions: Flood, 250 g ai/ha, applied to paddy water, 2-leaf stage, visual evaluation after 13 to 15 d
# Summary of the method: (§2)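 Pots flooded to 3 cm above the soil when treated, with test compound added straight to the water and the flood maintained. Treated plants were at the 2-leaf stage and stayed 13–15 d in greenhouse. Response versus untreated controls scored visually from 0 (no effect) to 100 (complete control).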
# [5] = system: barnyardgrass (Echinochloa crus-galli); assay: Test A preemergence, barnyardgrass; conditions: 0 to 100 scale, 0 is no effect, 100 is complete control
# Summary of the method: as §1
# [6] = system: ryegrass, Italian (Lolium multiflorum); assay: Test A preemergence, Italian ryegrass; conditions: 0 to 100 scale, 0 is no effect, 100 is complete control
# Summary of the method: as §1
# [7] = system: foxtail, giant (Setaria faberii); assay: Test A postemergence, giant foxtail; conditions: 0 to 100 scale, 0 no effect, 100 complete control
# Summary of the method: as §1
# [8] = system: pigweed (Amaranthus retroflexus); assay: Test A preemergence, pigweed; conditions: 0 to 100 scale, 0 is no effect, 100 is complete control
# Summary of the method: as §1
# [9] = system: galium (catchweed bedstraw, Galium aparine); assay: Test A postemergence, galium; conditions: 0 to 100 scale, 0 no effect, 100 complete control
# Summary of the method: as §1
# kochia (Kochia scoparia) [10] = assay: Test A preemergence, kochia; conditions: 0 to 100 scale, 0 is no effect, 100 is complete control
# Summary of the method: as §1
# [11] = system: barnyardgrass (Echinochloa crus-galli); assay: Test B flooded paddy test, barnyardgrass; conditions: Flood, 250 g ai/ha, applied to paddy water, 2-leaf stage, visual evaluation after 13 to 15 d
# Summary of the method: as §2
# kochia (Kochia scoparia) [12] = assay: Test A postemergence, kochia; conditions: 0 to 100 scale, 0 no effect, 100 complete control
# Summary of the method: as §1
# [13] = system: blackgrass (Alopecurus myosuroides); assay: Test A postemergence, blackgrass; conditions: 0 to 100 scale, 0 no effect, 100 complete control
# Summary of the method: as §1
# [14] = system: sedge, umbrella (small-flower umbrella sedge, Cyperus difformis); assay: Test B flooded paddy test, umbrella sedge; conditions: Flood, 250 g ai/ha, applied to paddy water, 2-leaf stage, visual evaluation after 13 to 15 d
# Summary of the method: as §2
# [15] = system: wheat (Triticum aestivum); assay: Test A postemergence, wheat; conditions: 0 to 100 scale, 0 no effect, 100 complete control
# Summary of the method: as §1
# [16] = system: foxtail, giant (Setaria faberii); assay: Test A preemergence, giant foxtail; conditions: 0 to 100 scale, 0 is no effect, 100 is complete control
# Summary of the method: as §1
# corn (Zea mays) = assay: Test A postemergence, corn; conditions: 0 to 100 scale, 0 no effect, 100 complete control
# Summary of the method: as §1
# [17] = system: ducksalad (Heteranthera limosa); assay: Test B flooded paddy test, ducksalad; conditions: Flood, 250 g ai/ha, applied to paddy water, 2-leaf stage, visual evaluation after 13 to 15 d
# Summary of the method: as §2
# [18] = system: pigweed (Amaranthus retroflexus); assay: Test A postemergence, pigweed; conditions: 0 to 100 scale, 0 no effect, 100 complete control
# Summary of the method: as §1
Structure (SMILES),"Plant response rating, Barnyardgrass ([1]; 125 g ai/ha)","Plant response rating, Barnyardgrass ([1]; 500 g ai/ha)","Plant response rating, Ragweed ([2]; 125 g ai/ha)","Plant response rating, Ragweed ([2]; 500 g ai/ha)",Ragweed plant response rating ([3]; 125 g ai/ha),Ragweed plant response rating ([3]; 500 g ai/ha),"Plant response rating, Ryegrass, Italian ([4]; 125 g ai/ha)","Plant response rating, Ryegrass, Italian ([4]; 500 g ai/ha)","Plant response rating, Rice (0 to 100 scale, 0 is no effect, 100 is complete control) (rice (Oryza sativa))",Barnyardgrass plant response rating ([5]; 125 g ai/ha),Barnyardgrass plant response rating ([5]; 500 g ai/ha),"Ryegrass, Italian plant response rating ([6]; 125 g ai/ha)","Ryegrass, Italian plant response rating ([6]; 500 g ai/ha)","Plant response rating, Foxtail, Giant ([7]; 125 g ai/ha)","Plant response rating, Foxtail, Giant ([7]; 500 g ai/ha)",Pigweed plant response rating ([8]; 125 g ai/ha),Pigweed plant response rating ([8]; 500 g ai/ha),"Plant response rating, Galium ([9]; 125 g ai/ha)","Plant response rating, Galium ([9]; 500 g ai/ha)",Kochia plant response rating (kochia (Kochia scoparia) [10]; 125 g ai/ha),also measured
C[C@H](Nc1ncc(C(F)(F)F)c(N)n1)c1coc2ccc(F)cc12 [Compound 56],50,30,0,30,20,80,0,0,0,70,70,0,0,10,20,0,30,0,0,0,"Kochia plant response rating (kochia (Kochia scoparia) [10]; 500 g ai/ha): 0; Plant response rating, Barnyardgrass (0 to 100 scale, 0 is no effect, 100 is complete control) [11]: 0; Plant response rating, Kochia (kochia (Kochia scoparia) [12]; 125 g ai/ha): 0; Plant response rating, Kochia (kochia (Kochia scoparia) [12]; 500 g ai/ha): 40; Plant response rating, Blackgrass ([13]; 125 g ai/ha): 0; Plant response rating, Blackgrass ([13]; 500 g ai/ha): 0; Plant response rating, Sedge, Umbrella (0 to 100 scale, 0 is no effect, 100 is complete control) [14]: 0; Plant response rating, Wheat ([15]; 125 g ai/ha): 0; Plant response rating, Wheat ([15]; 500 g ai/ha): 0; Foxtail, Giant plant response rating ([16]; 125 g ai/ha): 0; Foxtail, Giant plant response rating ([16]; 500 g ai/ha): 0; Plant response rating, Corn (corn (Zea mays); 125 g ai/ha): 0; Plant response rating, Corn (corn (Zea mays); 500 g ai/ha): 10; Plant response rating, Ducksalad (0 to 100 scale, 0 is no effect, 100 is complete control) [17]: 0; Plant response rating, Pigweed ([18]; 125 g ai/ha): 20; Plant response rating, Pigweed ([18]; 500 g ai/ha): 60"
CC(=O)c1cnc(NC(C)c2cc3ccccc3s2)nc1N (stereo not drawn) [Compound 57],0,70,40,70,60,100,0,60,0,0,70,20,50,0,50,30,100,60,80,0,"Kochia plant response rating (kochia (Kochia scoparia) [10]; 500 g ai/ha): 60; Plant response rating, Barnyardgrass (0 to 100 scale, 0 is no effect, 100 is complete control) [11]: 0; Plant response rating, Kochia (kochia (Kochia scoparia) [12]; 125 g ai/ha): 0; Plant response rating, Kochia (kochia (Kochia scoparia) [12]; 500 g ai/ha): 60; Plant response rating, Blackgrass ([13]; 125 g ai/ha): 0; Plant response rating, Blackgrass ([13]; 500 g ai/ha): 10; Plant response rating, Sedge, Umbrella (0 to 100 scale, 0 is no effect, 100 is complete control) [14]: 80; Plant response rating, Wheat ([15]; 125 g ai/ha): 0; Plant response rating, Wheat ([15]; 500 g ai/ha): 20; Foxtail, Giant plant response rating ([16]; 125 g ai/ha): 30; Foxtail, Giant plant response rating ([16]; 500 g ai/ha): 90; Plant response rating, Corn (corn (Zea mays); 125 g ai/ha): 0; Plant response rating, Corn (corn (Zea mays); 500 g ai/ha): 20; Plant response rating, Ducksalad (0 to 100 scale, 0 is no effect, 100 is complete control) [17]: 30; Plant response rating, Pigweed ([18]; 125 g ai/ha): 60; Plant response rating, Pigweed ([18]; 500 g ai/ha): 80"
